This is an account of results in patent publication US20220057405A1, “CELLS AND METHODS FOR EVALUATING THE ACTIVITY OF ORGANIC ANION TRANSPORTING POLYPEPTIDE 2A1 (OATP2A1)” (ABSORPTION SYSTEMS LLC, priority 2019, published 2022).

In data set [1] the target is T1, OATP2A1 (Homo sapiens, UniProt Q92959). Put plainly: Cellular uptake assay with fluorescent substrate of OATP2A1 in HEK293-OATP2A1 cells. The class given is cell-based. As for the experimental part: Key reagents—6-Carboxyfluorescein (6-CF) was purchased from Toronto Research Chemicals (Cat. No. C178325); 5,6-carboxy-SNARF-1 (5,6-Carboxy-seminaphthorhodafluor-1) was obtained from Thermo Fisher Scientific (Cat. No. C1270).
(§1) Assay procedure—HEK293-OATP2A1 cells and the vector control HEK293-VC-Neo cells were plated at 250,000 cells per well on 24 well poly-D-Lysine coated (BioCoat™) plates (Corning) in complete DMEM medium and grown for 48 hrs at 37 C.
(§2) […] For incubations with 6-CF, 1×HBSS pH 5.6 was used without pH adjustment. For the uptake of 5,6-carboxy-SNARF-1, the pH of 1×HBSS was adjusted to 7.4 with Bis-Tris/HCl. After the incubation, the media was aspirated, the cells were washed twice with ice-cold HBSS and lysed with 450 μL of the lysis buffer without the protease inhibitors. Two 150-μL samples from each well of the 24-well plates were taken and transferred into separate wells on black opaque 96-well Opti-plates (PerkinElmer). Fluorescence intensities were measured using λex 483(14) nm and λem 530(30) for 6-CF and λex 576(15) nm and λem 640(10) for 5,6-carboxy-SNARF-1 on a CLARIOstar® multimode microplate reader (BMG LABTECH). 20 μL of the samples used for fluorescence measurement were transferred into clear polystyrene flat-bottom 96-well plates (Thermo Fisher Scientific) and protein concentration was determined.
(§3) Concentrations of the fluorescent substrates of OATP2A1 in cell lysates were determined by measuring fluorescence intensities of the lysates and calculating concentrations of either 6-CF or 5,6-carboxy-SNARF-1 using linear calibration curves obtained from fluorescence intensities of the standard solutions of the fluorescent probes prepared in the same lysis buffer on the same 96-well assay plate. In order to account for differences in cell densities between the wells, protein concentration in the lysates was measured and used for calculating normalized uptake of the fluorescent substrates as follows:
(§4) The IC50 values were calculated from non-linear 4-parameter fit of the % Inhibition values vs. concentration of the inhibitors using GraphPad Prism 5 software. The same software was used for obtaining KM and Vmax values from a non-linear fit of the rate vs. substrate concentration fit into classic Michaelis-Menten equation: […]
Where: • CS is the substrate concentration in cell lysate • CP is the protein concentration in cell lysate • NUTC is the normalized uptake of the substrate in the presence of test article or inhibitor • NUHEK293-VC-Neo is the uninhibited (0.1% DMSO) normalized uptake by vector control cells • NUHEK293-OAM2A1 is the uninhibited (0.1% DMSO) normalized uptake by HEK293-OATP2A1 cells • Vt is the rate of the substrate uptake expressed as Normalized Uptake • Vmax is the calculated maximal rate of the substrate uptake by HEK293-OATP2A1 cells • S is the concentration of the fluorescent substrate of OATP2A1 • KM is the calculated Michaelis constant.

The test system of data set [2] is HEK293-VC-Neo cells. Put plainly: Cellular uptake of fluorescent substrate by vector control cells. The class given is cell-based, human. As to conditions: first 30 min of the assay (FIG. 6A, pH 7.5). The protocol:
as §1
as §2, with “Two 150-μL samples from each well of the 24-well plates were taken and transferred into separate wells on black opaque 96-well Opti-plates (PerkinElmer).” left out
Concentrations of the fluorescent substrates of OATP2A1 in cell lysates were determined by measuring fluorescence intensities of the lysates and calculating concentrations of either 6-CF or 5,6-carboxy-SNARF-1 using linear calibration curves obtained from fluorescence intensities of the standard solutions of the fluorescent probes prepared in the same lysis buffer on the same 96-well assay plate. […]

The target of data set [3] is T1, OATP2A1. Put plainly: OATP2A1 inhibition assay, cellular uptake of 6-CF with HEK293-OATP2A1 cells. The class given is cell-based. As to conditions: 6-CF substrate, pH 5.5. The protocol:
as §1
(§5) Cellular uptake of the fluorescent substrates 6-CF and 5,6-carboxy-SNARF-1 was assessed by incubating the HEK293-OATP2A1 and HEK293-VC-Neo cells with 10 μM 6-CF and 5 μM 5,6-carboxy-SNARF-1 for 15 and 20 min, correspondingly. For incubations with 6-CF, 1×HBSS pH 5.6 was used without pH adjustment. For the uptake of 5,6-carboxy-SNARF-1, the pH of 1×HBSS was adjusted to 7.4 with Bis-Tris/HCl. After the incubation, the media was aspirated, the cells were washed twice with ice-cold HBSS and lysed with 450 μL of the lysis buffer without the protease inhibitors. Two 150-μL samples from each well of the 24-well plates were taken and transferred into separate wells on black opaque 96-well Opti-plates (PerkinElmer). Fluorescence intensities were measured using λex 483(14) nm and λem 530(30) for 6-CF and λex 576(15) nm and λem 640(10) for 5,6-carboxy-SNARF-1 on a CLARIOstar® multimode microplate reader (BMG LABTECH). 20 μL of the samples used for fluorescence measurement were transferred into clear polystyrene flat-bottom 96-well plates (Thermo Fisher Scientific) and protein concentration was determined.
All compounds were acquired from Sigma-Aldrich as solid powders and 10 mM stocks were made either in DMSO or HBSS (see Table 1). Serial dilutions of the compounds were made using 3.162-fold […] dilution factor either with DMSO or HBSS at the concentrations 1,000 higher than the final concentrations in the assay. […]
as §3
(§6) Using uninhibited normalized uptake values obtained with HEK293-OATP2A1 and HEK293-VC-Neo cells in 0.1% DMSO in HBSS as the high and low controls of the assay, the % Control and % Inhibition values were calculated as follows: […]
The IC50 values were calculated from non-linear 4-parameter fit of the % Inhibition values vs. concentration of the inhibitors using GraphPad Prism 5 software. […]

The target in data set [4] is T1, OATP2A1. Put plainly: OATP2A1 inhibition assay, cellular uptake of 5,6-Carboxy-SNARF with HEK293-OATP2A1 cells. The class given is cell-based. The conditions noted are these: HEK293-OATP2A1 cells, 5,6-Carboxy-SNARF substrate, pH 7.4. The protocol: as §1, §5
All compounds were acquired from Sigma-Aldrich as solid powders and 10 mM stocks were made either in DMSO or HBSS (see Table 1). Serial dilutions of the compounds were made using 3.162-fold […] dilution factor either with DMSO or HBSS at the concentrations 1,000 higher than the final concentrations in the assay. These 1,000× solutions were further diluted 1:100 with HBSS in 2-mL polypropylene deep 96-well block (VWR) to make 10× working stock solutions of the inhibitors.
HEK293-OATP2A1 and HEK293-VC-Neo cells were cultured. The media was aspirated and 800 μL of HBSS was added to each well followed by the addition of 100 μL of the 10× working stock solutions of the inhibitors. The plates were incubated for 5 min at RT, and the assay was started by the addition of 100 μL of either 100 μM 6-CF or 50 μM 5,6-carboxy-SNARF-1 in HBSS.
as §3, §6, §4

The target of data set [5] is T1, OATP2A1. The conditions noted are these: published potencies of the OATP2A1 inhibitors; read-out: IC50, Literature (Kamo et al., J Pharma Sci, 2017); cited from earlier work.

Read-outs that look alike come from different tables or passages of the source. A value given as a limit tells only on which side of the number the result lay.

Consider “5,6-Carboxy-seminaphthorhodafluor-1 [5,6-Carboxy-SNARF]”, for which the “S:B in uptake assay” value in data set [1] (HEK293-OATP2A1 cell line, time-course, pH 7.5 (FIG. 6A)) turned out to be 142. Besides, the “initial rate of the uptake” value in data set [1] (HEK293-OATP2A1 cells, first 30 min of the assay (FIG. 6A, pH 7.5)) turned out to be 99.1 pmol/mg/min; in data set [2], 0.7 pmol/mg/min. Also, the Km in data set [1] (OATP2A1-mediated uptake in HEK293-OATP2A1 cell line, Michaelis-Menten fit (FIG. 5)) stood at 29 ± 9 µM. In addition, in data set [1] (OATP2A1 vs. OATP2B1 transporters (FIG. 4A)), the transporter specificity result was “specific for OATP2A1 vs. OATP2B1”.
For `O=C(O)c1ccc2c(c1)C1(OC2=O)c2ccc(O)cc2Oc2cc(O)ccc21` [Compound 6-CF, 6-Carboxyfluorescein], the “rate of uptake by HEK293-OATP2A1 cell line compared to the control cells” value in data set [1] (FIG. 2, vs vector control cells HEK-VC-Neo) is at least 230 fold. Further, the “uptake by HEK293-OATP2A1 cell line vs rate of uptake by the control cells” value in data set [1] (pH 6.5 (FIG. 6B)) is on record as 233 times; in data set [1] (sentence following the initial rates of FIG. 6A), “more than 1400 times”.
As for `CCCCc1nc(Cl)c(CO)n1Cc1ccc(-c2ccccc2-c2nn[nH]n2)cc1` [Losartan], the IC50 in data set [3] is 1280 nM; in data set [4] it was 1210 nM; in data set [5], 1760 nM.
`CCCc1nc(C(C)(C)O)c(C(=O)O)n1Cc1ccc(-c2ccccc2-c2nnn[nH]2)cc1` [Olmesartan]: the IC50 in data set [3] was 492 nM; in data set [4] it was 554 nM; in data set [5], 970 nM.
Regarding `O=C(Nc1cccc2c(=O)cc(-c3nnn[nH]3)oc12)c1ccc(OCCCCc2ccccc2)cc1` [Pranlukast], the IC50 was 142 nM in data set [3], 148 nM in data set [4] and 550 nM in data set [5].
As for `Cc1ccc(C(=O)Nc2ccc(S(=O)(=O)O)c3cc(S(=O)(=O)O)cc(S(=O)(=O)O)c23)cc1NC(=O)c1cccc(NC(=O)Nc2cccc(C(=O)Nc3cc(C(=O)Nc4ccc(S(=O)(=O)O)c5cc(S(=O)(=O)O)cc(S(=O)(=O)O)c45)ccc3C)c2)c1` [Suramin], the IC50 was 222 nM in data set [3], 186 nM in data set [4] and 170 nM in data set [5].
For the compound `COc1cc(C(=O)NS(=O)(=O)c2ccccc2C)ccc1Cc1cn(C)c2ccc(NC(=O)OC3CCCC3)cc12` [Zafirlukast], the figures for the IC50 in data set [4] and in data set [5] were 1110 nM and 1600 nM, respectively.

What is called Km is the concentration of substrate that gives half-maximal velocity. Broadly, the IC50 is the midpoint of a concentration-inhibition curve.
